Here are results for three molecules from publication PMC7242566, “The Three Lipocalins of Egg-White: Only Ex-FABP Inhibits Siderophore-Dependent Iron Sequestration by Salmonella Enteritidis” (Frontiers in Microbiology, 2020).

“And” between values parts separate entries of the source, which are not always exact repeats. Identical values can stand only once. Like-named read-outs stand apart in the source and are kept apart here.

For test [1], the target named is T1, LCN2 (Homo sapiens, UniProt P80188).
T1 construct: made in house; host or cells: E. coli K-12 BW25113 ΔentB::kan (JW0587) (λDE3), pET21a
T1 sequence (P80188 with tags, fused parts or gaps): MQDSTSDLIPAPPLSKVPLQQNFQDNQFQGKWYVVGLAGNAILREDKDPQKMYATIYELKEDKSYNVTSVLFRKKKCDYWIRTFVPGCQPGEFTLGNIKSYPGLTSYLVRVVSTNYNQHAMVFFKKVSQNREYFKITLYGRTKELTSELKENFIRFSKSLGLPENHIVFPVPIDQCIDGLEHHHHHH
In words: Isothermal titration calorimetry, siderophore binding to LCN2. Particulars: ITC; for n (binding stoichiometry) / ΔH (enthalpy) / ΔS (entropy) / Kd: TBS pH 7.4, 30°C; for Kd: 5 μM lipocalin. On the procedure:
(§1) Experiments were carried out with a GE Healthcare Microcal VP-ITC microcalorimeter according to the manufacturer’s guidelines (Operating Instructions 28-9639-79 AA). The device consisted of a motorized injection syringe, in which the ligand was loaded, with two adiabatic cells set at 30 °C. The left cell was filled with the reference (TBS with 1.3% DMSO), whereas the right cell was filled with 5 μM lipocalin protein dissolved in the same buffer. […] Samples were degassed and pre-equilibrated at the desired temperature using a GE MicroCal ThermoVac degassing station before loading into the syringe, sample cell and reference cell.

Test [2] addresses T2, Ex-FABP (Gallus gallus, UniProt P21760).
T2 construct: made in house; host or cells: E. coli K-12 BW25113 ΔentB::kan (JW0587) (λDE3), pET21a, periplasmic secretion
In words: biochemical. It is filed as binding, chicken. On the procedure:
as §1

The target in test [3] is T1, LCN2. More on the design: method as in Li et al., 2015. Particulars: ITC, earlier report; ref Li et al., 2015; cited from earlier work.
The target in test [4] is T1, LCN2. Particulars: cited from earlier work; for Kd: TQF.
Test [5] concerns the target T2, Ex-FABP. Particulars: TQF, ref Correnti et al., 2011, cited from earlier work; for Kd: pH 7.4.
A further test has as its target Cal-γ. In words: Isothermal titration calorimetry, siderophore binding to Cal-γ. Particulars: ITC, TBS pH 7.4, 30°C, 5 μM lipocalin. Set-up: species or system chicken. Here is the method:
as §1
(§2) FIGURE 2 Interactions between lipocalins and SE siderophores. […] Data for LCN2, Fe-Ent are shown in the Supplementary Figure S2.

Another test deals with α-1-ovoglycoprotein. In words: Isothermal titration calorimetry, siderophore binding to α-1-ovoglycoprotein. Set-up: species or system chicken. Particulars: ITC, TBS pH 7.4, 30°C, 5 μM recombinant non-glycosylated lipocalin. Here is the method:
as §1, §2

Details of test [6]: method as in Chart and Rowe, 1993. Particulars: ref Chart and Rowe, 1993; cited from earlier work.

T2 sequence (P21760 21-178): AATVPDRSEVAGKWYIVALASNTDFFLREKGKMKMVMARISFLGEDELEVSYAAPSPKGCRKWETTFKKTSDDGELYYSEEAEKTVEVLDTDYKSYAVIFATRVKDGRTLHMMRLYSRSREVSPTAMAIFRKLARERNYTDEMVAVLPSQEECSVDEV

As to `O=C(N[C@H]1COC(=O)[C@@H](NC(=O)c2cccc([O-])c2[O-])COC(=O)[C@@H](NC(=O)c2cccc([O-])c2[O-])COC1=O)c1cccc([O-])c1[O-].[Fe+3]` [Fe^3+-Ent], the “fold higher affinity for Fe^3+-Ent than apoEnt” value at LCN2 [1] is given as 4.9 fold; at Ex-FABP [2] (ITC) it was 16 fold; at LCN2 [4] (ref Abergel et al., 2006) it was 8.7 fold; on Ex-FABP [5], 2.3 fold. For the same molecule, the “n (binding stoichiometry)” value on LCN2 [1] turned out to be 0.863; at Ex-FABP [2] (ITC, TBS pH 7.4, 30°C) it was 0.672. Further, the “ΔH (enthalpy)” value at LCN2 [1] is -26.2 kcal/mol; at Ex-FABP [2] (ITC, TBS pH 7.4, 30°C) it was -19.4 kcal/mol. Moreover, the “ΔS (entropy)” value is −50.2 cal/mol, K at LCN2 [1] and −26.1 cal/mol, K at Ex-FABP [2] (ITC, TBS pH 7.4, 30°C). Besides, the Kd is 11.8 ± 8.8 nM on LCN2 [1] (read-out: Kd); 5.3 ± 3.8 nM at Ex-FABP [2] (ITC, TBS pH 7.4, 30°C, 5 μM lipocalin, read-out: Kd); 240 nM on LCN2 [3]; 0.43 nM at LCN2 [4] (ref Fischbach et al., 2006); 0.41 nM at LCN2 [4] (ref Goetz et al., 2002); 0.22 ± 0.06 nM at Ex-FABP [5] (read-out: Kd).

Take salmochelin [apo-Sal (or DGE)]: the Kd entry on LCN2 [1] is recorded as “No binding was observed”; at Ex-FABP [2] (ITC, TBS pH 7.4, 30°C, 5 μM lipocalin), “No interactions could be measured”; at Ex-FABP [2] (ITC, TBS pH 7.4, 30°C, 5 μM lipocalin, listed as apoDGE) it was “failed to interact”; at Cal-γ, “Under threshold”; at Cal-γ (listed as apoDGE), “neither Cal-γ nor α-1-ovoglycoprotein bind”; at Cal-γ (listed as salmochelin) it was “No interactions could be measured”. In addition, the Kd result at α-1-ovoglycoprotein is “Under threshold”; on α-1-ovoglycoprotein (listed as apoDGE), “neither Cal-γ nor α-1-ovoglycoprotein bind”; on α-1-ovoglycoprotein (listed as salmochelin) it was “No interactions could be measured”; on Ex-FABP [5], “Under threshold”.

Regarding `O=C(N[C@H]1COC(=O)[C@@H](NC(=O)c2cccc(O)c2O)COC(=O)[C@@H](NC(=O)c2cccc(O)c2O)COC1=O)c1cccc(O)c1O` [apo-Ent, enterobactin], the “n (binding stoichiometry)” value at LCN2 [1] turned out to be 0.872; at Ex-FABP [2] (ITC, TBS pH 7.4, 30°C), 0.617. Besides, the “ΔH (enthalpy)” value at LCN2 [1] is -27.8 kcal/mol; on Ex-FABP [2] (ITC, TBS pH 7.4, 30°C), -28.3 kcal/mol. Besides, the “ΔS (entropy)” value on LCN2 [1] was −58.9 cal/mol, K; at Ex-FABP [2] (ITC, TBS pH 7.4, 30°C) it was −60.9 cal/mol, K. In addition, the Kd at LCN2 [1] (Kd) is 58 nM and 58.4 nM; on Ex-FABP [2], 86.2 ± 14.6 nM; on Cal-γ, “Under threshold”; at Cal-γ (listed as apoEnt) it was “neither Cal-γ nor α-1-ovoglycoprotein bind”; on Cal-γ (listed as enterobactin), “No interactions could be measured”; on α-1-ovoglycoprotein, “Under threshold”. Further, the Kd result at α-1-ovoglycoprotein (listed as apoEnt) is “neither Cal-γ nor α-1-ovoglycoprotein bind”; at α-1-ovoglycoprotein (listed as enterobactin), “No interactions could be measured”; at LCN2 [4] (ref Abergel et al., 2006), 3.57 nM; at Ex-FABP [5] (read-out: Kd), 0.5 ± 0.15 nM. Moreover, the “binding/affinity constant for Fe^3+ (ferric ion)” value in test [6] was 10^52 M^−1.
